Assays:
FAK = biological target: T1, FAK (Mus musculus, UniProt P34152); assay: Reversibility of FAK displacement after compound washout; type: cell-based; conditions: 4 µM for 1 h
T1 construct: expressed in transfected cells; host or cells: FAK-/- (p53-/-) mouse embryonic fibroblasts stably re-expressing GFP-FAK
Protocol: In order to analyze whether FAK or its binding partner paxillin are degraded after displacement, serum-starved GFP-FAK MEFs were stimulated with normal growth medium in presence of increasing concentrations of Mb31. After 30 min cells were lysed and protein levels were determined by immunoblotting. […] In line with this, in vitro activity of purified FAK kinase domain was not altered in presence of Mb31 (Figure 8). […] Considering, that paxillin and FAK are not degraded in Mb31 treated GFP-FAK MEFs the inventors further investigated whether FAK displacement is reversible. GFP-FAK MEFs were seeded on fibronectin and treated with 4 µM Mb31 for 1 h. Following compound washout, cells were incubated for 1 h and fixed. […] To strengthen the hypothesis of FAK relocalization, in a second approach de novo protein synthesis was blocked with cycloheximide. Again, FAK containing focal adhesions could be clearly identified in the cell periphery.
MEFs were seeded on fibronectin fragment (4 µg/ml in PBS) in multi-well plates (Greiner Bio-One) and incubated for 4 h to allow spreading. Cells were fixed and permeabilized with MeOH at -20°C after pre-fixation with 4% paraformaldehyde. […] Cells were washed again with PBS to remove excess antibodies and were imaged using a Leica AF6000LX fluorescence microscope. […]

GFP-FAK MEFs = assay: Cell migration assay (single cell tracking, serum-stimulated); type: cell-based, mouse; conditions: for cell velocity: serum-stimulated
Protocol: (§1) Image J was used to automatically quantify FAK-containing focal adhesions due to local maxima of fluorescence intensity in the GFP-channel (5 to 70 pixel). The number of cells was automatically counted in the Hoechst channel. To test reproducibility of the system 40 control wells were quantified wherein four positions for each well were imaged. […] GFP-FAK mouse embryonic fibroblasts were seeded on fibronectin and incubated for 1 h with the indicated concentrations of the small compounds, respectively. […] GFP-FAK mouse embryonic fibroblasts were seeded on fibronectin and serum-starved overnight. The indicated concentrations of Mb31 were applied for 30 min. Cells were lysed and analyzed for paxillin and FAK protein level as well as FAK Tyr397 phosphorylation. […] The purified kinase domain of FAK was incubated with increasing amounts of Mb31 for 1 h at 30°C together with poly-Glu-Tyr as a FAK substrate. […] Serum-starved GFP-FAK mouse embryonic fibroblasts were stimulated with normal growth medium and incubated for 5 h with the indicated concentrations of the small molecule compounds, respectively. Cell viability was assessed by MTT assay. […] GFP-FAK MEFs were seeded on fibronectin and serum-starved overnight. Migration was stimulated by replacing the medium with normal growth medium. Migration of single cells was tracked for 8 h in 30 min intervals. Migration was recorded from cells that were cultured without serum (A), with serum (B) or with serum in the presence of 3 µM Mb31 (C). […] (A) GFP-FAK MEFs were seeded and serum-starved as in Figure 10. Cell migration was stimulated with normal growth medium and single cells were tracked for 5 h. […] Mouse embryonic fibroblasts (MEFs) were transfected with talin-mCherry and talin dynamics analyzed in focal adhesions using fluorescence recovery after photobleaching (FRAP). […] (C) Wound closure was microscopically analyzed and evaluated using ImageJ software.
(§2) To further determine whether Mb31 interferes with cell motility, GFP-FAK MEFs were serum-stimulated and migration was quantified on a single cell basis (Figures 11 and 12). […]

NIH-v-Src fibroblasts = assay: EGF-stimulated cell migration of transformed cells; type: cell-based; conditions: 10 ng/ml EGF, tracked 6 h before and 6 h after addition
Protocol: as §1, §2

[1] = system: MDA-MB-231 breast cancer cells; assay: In vitro wound healing assay; type: cell-based, human; conditions: 3 µM, 25 h, serum-containing growth medium
Protocol: as §1, with “h. (B) Mb31 was added and the same cells were tracked for additional 5 h. (C) Mean velocities of differently treated cells were plotted over time. […] NIH-v-Src fibroblasts were seeded on 2 µg/ml FN in DMEM/0.5%BSA and stimulated with 10 ng/ml EGF or kept unstimulated.” for “h.”, “(FRAP). Cells were left untreated (A) or treated with 10 µM of Mb31 (B). In untreated cells, the mCherry intensity recovered, indicating replacement of bleached by non-bleached talin and therefore turnover of talin at focal adhesions.” for “(FRAP).”
To determine if the migration of transformed cells can be blocked by FLocker1 and related compounds, human breast carcinoma cells (MDA-MB-231) were used in in vitro wound healing assays. […] The ability of the cells to migrate and close the wound space was monitored by microscopy and quantified (Figure 18B and C).

T1 sequence (P34152 whole entry): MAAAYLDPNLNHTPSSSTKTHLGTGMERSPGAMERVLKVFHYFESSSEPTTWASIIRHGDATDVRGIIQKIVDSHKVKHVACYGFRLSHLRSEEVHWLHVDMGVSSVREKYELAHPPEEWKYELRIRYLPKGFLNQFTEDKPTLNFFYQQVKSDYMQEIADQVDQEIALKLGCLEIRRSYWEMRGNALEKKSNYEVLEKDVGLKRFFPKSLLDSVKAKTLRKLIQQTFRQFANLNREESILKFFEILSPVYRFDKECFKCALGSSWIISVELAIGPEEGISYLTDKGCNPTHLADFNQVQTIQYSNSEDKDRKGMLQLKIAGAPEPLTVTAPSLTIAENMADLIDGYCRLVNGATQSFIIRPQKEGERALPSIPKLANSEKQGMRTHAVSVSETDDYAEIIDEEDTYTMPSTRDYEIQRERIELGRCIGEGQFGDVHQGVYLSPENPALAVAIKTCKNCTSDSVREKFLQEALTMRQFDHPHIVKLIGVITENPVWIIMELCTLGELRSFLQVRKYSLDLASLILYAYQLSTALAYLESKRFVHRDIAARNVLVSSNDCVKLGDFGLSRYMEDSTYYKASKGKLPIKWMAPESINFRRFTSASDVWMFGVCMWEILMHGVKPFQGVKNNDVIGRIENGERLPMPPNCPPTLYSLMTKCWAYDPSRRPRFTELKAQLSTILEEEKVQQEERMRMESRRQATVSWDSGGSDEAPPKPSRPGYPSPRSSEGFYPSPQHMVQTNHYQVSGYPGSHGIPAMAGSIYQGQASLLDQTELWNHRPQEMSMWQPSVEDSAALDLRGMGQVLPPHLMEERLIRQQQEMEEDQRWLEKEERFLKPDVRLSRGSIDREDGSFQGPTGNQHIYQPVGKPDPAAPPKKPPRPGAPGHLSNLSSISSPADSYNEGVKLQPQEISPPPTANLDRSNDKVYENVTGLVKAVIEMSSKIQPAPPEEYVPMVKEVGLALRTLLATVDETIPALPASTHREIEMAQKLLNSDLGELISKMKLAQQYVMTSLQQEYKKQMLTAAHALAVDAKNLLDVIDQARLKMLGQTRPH

## O=[N+]([O-])C=Cc1cc(Br)cs1 [FootLocker 1, 4-bromo-2-(2-nitrovinyl)thiophene]
FAK; before washout
  FAK displacement in treated cells: completely displaced
FAK; washout, 1 h incubation
  FAK localization after compound washout: FAK relocalized to focal adhesions
GFP-FAK MEFs; added after 5 h tracking, 3 µM or more, further 5 h
  cell velocity after treatment of migrating cells: 0.11 µm/min
GFP-FAK MEFs; 2 µM
  cell velocity: 0.11 µm/min
GFP-FAK MEFs; 3 µM
  cell velocity: 0.07 µm/min
NIH-v-Src fibroblasts
  migration of EGF-stimulated cells: efficiently inhibit the migration
[1]
  migration of cancer cells / wound closure: retarded the migration of the cancer cells
